Results as given in US8486974B2 (priority 2007, dated 2013).
Entries after “also recorded” stand apart in the source; their conditions may differ. Like-named read-outs stand apart in the source and are kept apart here.

Tests used:
TXB2 synthesis = assay: Inhibition of TXB2 synthesis in clotting whole blood (ELISA); format: cell-based; conditions: 1 hour at 37° C., listed as ISAS
Procedure: TXA2 is highly evanescent and unsuitable for direct measurement but its metabolite TXB2 is generally believed to provide a useful index of the parent. […] The samples were then centrifuged. Serum was collected and TXB2 was measured using enzyme linked immunosorbent assay (ELISA) kits obtained from Cayman Chemicals.

[1] = Hydrolysis in rabbit plasma; format: in vitro ADME
Procedure: Pooled plasma/serum solutions (4 ml) were prepared to the correct strength by dilution of plasma with phosphate buffer pH 7.4 (e.g. for a 10% solution 0.4 ml of plasma/serum was added to 3.6 ml of phosphate buffer pH 7.4). Following equilibration of the plasma/serum sample at 37±0.5° C. 100 μl of a stock solution of test compound in acetonitrile (1×10^−4 M) was added and 250 μl aliquots were removed at specified time intervals. Samples were transferred to 1.5 ml Eppendorf tubes containing 500 μl of a 2% w/v solution of nSO4.7H2O (water:acetonitrile, 1:1). Tubes were vortexed for 2 minutes, then centrifuged at 10,000 rpm for 3 minutes at room temperature. Supernatant was aspirated off and analysed by HPLC. The concentration of test compound and metabolites were determined with reference to calibration curves run on that day in the same concentration range and under the same experimental conditions. […] The metabolic fate of the esters under these conditions was also determined by RPHPLC by measuring the concentration of drug and metabolites in the medium as a function of time. […] The BuChE activity of plasma and microsomal samples was determined using the Ellman assay (Ellman et al., 1964). […]

[2] = test system: rabbit liver carboxylesterase; format: in vitro ADME; conditions: 0.1 mM
[3] = Hydrolysis in the presence of human liver microsomes (HLM), with or without esterase inhibitors; format: in vitro ADME
[4] = test system: esterases found in CACO-2 cells; assay: Stability towards esterases found in CACO-2 cells; format: in vitro ADME
[5] = test system: human platelet aggregation to arachidonic acid; assay: Human platelet aggregation to arachidonic acid in platelet rich plasma; format: cell-based
Procedure: (§1) Blood was collected from healthy volunteers who had not taken any drugs known to affect platelet function for at least 14 days prior to the study. Platelet rich plasma (PRP) and washed platelet suspensions (2.5×10^8 platelets/ml) were prepared from blood as previously described.
(§2) Platelet aggregation was measured by light aggregometry as previously described. Briefly, PRP and washed platelet samples (2.5×10^8/ml) were placed in a whole blood ionized calcium lumi-aggregometer (Chronolog Corp., Havertown, Pa., U.S.A), and (BIO/DATA CORPORATION) and incubated for 10 min at 37° C., with stirring at 900 r.p.m., prior to the addition of aggregating agents. Aggregation was initiated by the addition of agonists, and monitored by Aggro-Link software for at least 6 min. For experiments using inhibitors, aggregation was initiated after 10 min preincubation with these compounds

[6] = test system: typical digestive proteases; assay: Stability in the presence of digestive proteases; format: in vitro ADME
GPIIb/IIIa = assay: Flow cytometry of activated GPIIb/IIIa (PAC-1) on platelets; format: cell-based, human; conditions: concentrations at which aspirin has no effect
Procedure: In order to analyze receptor expression on the surface of individual platelets and to minimize platelet activation caused by sample preparation procedures, no stirring or vortexing steps were used. The abundance of activated GPIIb/IIIa and P-selectin on the surface of platelets in the presence and absence of inhibitors was measured by flow cytometry. Platelet samples were first activated with agonists either collagen or ADP. When platelet aggregation reached 50% maximal light transmission the reaction was terminated by 10-fold dilution with physiologic saline. Resting platelets were used as control. In most of the experiments, platelets were preincubated with inhibitors for 10 min prior to the addition of agonists. Platelet samples were then incubated in the dark without stirring for 5 min at room temperature in the presence of saturating concentrations (10 μg/ml) of P-selectin (CD62P-APC). The activated GPIIb/IIIa platelet receptors were measured using PAC-1 monoclonal antibody at the same concentration as above. PAC-1 specifically recognizes an epitope on the high-affinity GPIIb/IIIa complex of activated platelets at or near the […]. Following incubation, samples were diluted in FACS Flow fluid and analyzed within 5 min using a BD FACSArray (BD Biosciences, Oxford, UK). Flow cytometry was performed on single stained platelet samples as described before^3. The instrument was set up to measure the size (forward scatter), granularity (side scatter) and cell fluorescence. A two-dimensional analysis gate of forward and side scatter was drawn in order to include single platelets and exclude platelet aggregates and microparticles. Antibody binding was measured by analyzing individual platelets for fluorescence. The mean fluorescence intensity was determined after correction for cell autofluorescence. For each sample, the fluorescence was analyzed using a logarithmic scale. Fluorescence histograms were obtained for 10,000 individual events. Data were analyzed using Cytometer RXP software and expressed as a percentage of control fluorescence in arbitrary units.

MDA synthesis = MDA synthesis by washed platelets; format: cell-based
[7] = molecular target: T1, purified human serum BuChE (Homo sapiens, UniProt P06276); assay: Hydrolysis by purified human serum butyrylcholinesterase; format: in vitro ADME; conditions: purified butyrylcholinesterase
T1 construct: Purified human serum butyrylcholinesterase (EC 3.1.1.8); purchased Sigma-Aldrich; host or cells: human serum
Procedure: (§3) Pooled plasma/serum solutions (4 ml) were prepared to the correct strength by dilution of plasma with phosphate buffer pH 7.4 (e.g. for a 10% solution 0.4 ml of plasma/serum was added to 3.6 ml of phosphate buffer pH 7.4). Following equilibration of the plasma/serum sample at 37±0.5° C. 100 μl of a stock solution of test compound in acetonitrile (1×10^−4 M) was added and 250 μl aliquots were removed at specified time intervals. Samples were transferred to 1.5 ml Eppendorf tubes containing 500 μl of a 2% w/v solution of nSO4.7H2O (water:acetonitrile, 1:1). Tubes were vortexed for 2 minutes, then centrifuged at 10,000 rpm for 3 minutes at room temperature. Supernatant was aspirated off and analysed by HPLC. The concentration of test compound and metabolites were determined with reference to calibration curves run on that day in the same concentration range and under the same experimental conditions. In order to mimic conditions during the first passage of the drugs after intestinal absorption selected compounds were incubated in phosphate buffer at 37° C. in the presence of microsomes from human liver (HLM) and intestinal epithelium (HIM). The metabolic fate of the esters under these conditions was also determined by RPHPLC by measuring the concentration of drug and metabolites in the medium as a function of time. The identity of participating enzymes was confirmed by using purified enzyme in the case of plasma (BuChE) and by repeating the hydrolysis experiments in the presence of esterase specific inhibitors—isoOMPA for BuChE and BNPP for carboxylesterase. The BuChE activity of plasma and microsomal samples was determined using the Ellman assay (Ellman et al., 1964).

[8] = test system: collagen-induced human platelet aggregation; assay: Collagen-induced human platelet aggregation in vitro; format: cell-based; conditions: listed as ISAS
Procedure: as §1, §2
Collagen at different concentrations (3-5 ug/ml) was also used to induce platelet aggregation. The submaximal concentrations of agonists, i.e. the concentrations that gave approximately 95% of the maximal aggregation were used to study the effects of inhibitors of aggregation. Results were expressed in percent changes in maximal light transmission, with 100% representing light transmission of platelet medium alone.

[9] = format: in vitro ADME; conditions: 0.1 mM, pH 7.4
Procedure: as §3
Qualitative hydrolysis screening of Is-2-aspirinate-5-salicylate 2 (0.1 mM) was studied using guinea pig, hamster, rabbit and monkey plasma. The purpose of this test was to determine a suitable species for biological testing and preclinical development. The results were also expected to confirm the role of the human enzymes already identified because these are variously distributed in laboratory animals.

T1 sequence (P06276 29-602): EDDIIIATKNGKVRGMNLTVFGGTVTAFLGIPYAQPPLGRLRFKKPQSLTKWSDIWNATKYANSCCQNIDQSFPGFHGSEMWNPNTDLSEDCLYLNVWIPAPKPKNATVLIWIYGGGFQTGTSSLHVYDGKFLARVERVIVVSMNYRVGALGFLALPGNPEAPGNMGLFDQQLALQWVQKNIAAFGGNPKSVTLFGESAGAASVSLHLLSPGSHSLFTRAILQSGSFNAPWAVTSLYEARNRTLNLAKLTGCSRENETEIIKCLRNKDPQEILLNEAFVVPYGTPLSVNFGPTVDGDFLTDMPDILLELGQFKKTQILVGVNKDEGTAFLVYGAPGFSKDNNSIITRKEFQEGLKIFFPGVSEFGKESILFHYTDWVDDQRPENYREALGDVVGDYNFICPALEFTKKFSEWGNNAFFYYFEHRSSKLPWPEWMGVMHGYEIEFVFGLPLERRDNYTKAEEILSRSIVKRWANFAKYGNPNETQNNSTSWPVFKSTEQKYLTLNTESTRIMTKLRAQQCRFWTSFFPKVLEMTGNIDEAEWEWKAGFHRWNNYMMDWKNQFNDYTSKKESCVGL

CC(=O)Oc1ccccc1C(=O)O[C@H]1CO[C@H]2[C@@H]1OC[C@H]2OC(=O)c1ccccc1O [Compound 2, Isosorbide-2-aspirinate-5-salicylate]
inhibition of TXB2 (TXA2) synthesis (TXB2 synthesis): effective in preventing the TXA2 synthesis; also recorded: significantly more potent than aspirin
Drug disappearance ([1]; 50% Rabbit Plasma, conc drug 0.1 mM): 20 min
Drug disappearance time ([1]; rabbit, 0.1 mM, pH 7.4): 10 min
Drug disappearance [2]: 5 min
Drug disappearance ([3]; HLM/isoOMPA (10 uM), conc drug […]): 10 min
Drug disappearance ([3]; human, 0.1 mM, pH 7.4): 10 min
stability towards esterases found in CACO-2 cells [4]: stable
potency relative to aspirin, inhibition of arachidonic acid-induced human platelet aggregation [5]: significantly more potent than aspirin
stability in the presence of typical digestive proteases [6]: stable
constitutive platelet glyco-protein expression (GPIIb/IIIa): dampens constitutive platelet glyco-protein expression
MDA synthesis by washed platelets (MDA synthesis): effective
conversion to aspirin in the presence of purified butyrylcholinesterase [7]: almost complete conversion to aspirin
potency relative to aspirin, inhibition of collagen-induced human platelet aggregation [8]: significantly more potent than aspirin; also recorded: significantly more potent than ASA
Drug disappearance time ([9]; guinea pig, 1 hr): present after 1 hr
Drug disappearance time ([9]; hamster): 20 min
Drug disappearance time ([9]; monkey): 5 min
